Our source for the minimal effective concentration values is US6756382B2, “Amide substituted imidazoquinolines” (3M Innovative Properties Company, priority 1999, dated 2004).

Counter-ions that a name gives are not always drawn.

The test system of assay [1] is tumor necrosis factor (α). As to the kind of experiment: Cytokine induction in human cells: tumor necrosis factor (α) secreted by PBMCs, ELISA. The note with it: PBMC, incubated 18 to 24 hours, TNF determined by ELISA, read-out: Lowest Effective Concentration (μM) Tumor Necrosis Factor. The format is cell-based. The text has this:
(§1) An in vitro human blood cell system was used to assess cytokine induction by compounds of the invention. Activity is based on the measurement of interferon and tumor necrosis factor (α) (IFN and TNF, respectively) secreted into culture media as described by Testerman et. al. In “Cytokine Induction by the Immunomodulators Imiquimod and S-27609”, Journal of Leukocyte Biology, 58, 365-372 (September, 1995).
(§2) Whole blood is collected by venipuncture into EDTA vacutainer tubes from healthy human donors. Peripheral blood mononuclear cells (PBMCs) are separated from whole blood by density gradient centrifugation using Histopaque®-1077 (Sigma Chemicals, St. Louis, Mo.). The PBMCs are suspended at 3-4×10^6 cells/mL in RPMI 1640 medium containing 10% fetal bovine serum, 2 mM L-glutamine and 1% penicillin/streptomycin solution (RPMI complete). The PBMC suspension is added to 48 well flat bottom sterile tissue culture plates (Costar, Cambridge, Mass. or Becton Dickinson Labware, Lincoln Park, N.J.) containing an equal volume of RPMI complete media containing test compound.
(§3) The compounds are solubilized in dimethyl sulfoxide (DMSO). The DMSO concentration should not exceed a final concentration of 1% for addition to the culture wells.
(§4) The solution of test compound is added at 60 μM to the first well containing RPMI complete and serial (three fold or ten fold) dilutions are made. The PBMC suspension is then added to the wells in an equal volume, bringing the test compound concentrations to the desired range. The final concentration of PBMC suspension is 1.5-2×10^6 cells/mL. The plates are covered with sterile plastic lids, mixed gently and then incubated for 18 to 24 hours at 37° C. in a 5% carbon dioxide atmosphere.
(§5) Following incubation the plates are centrifuged for 5-10 minutes at 1000 rpm (˜200×g) at 4° C. The cell culture supernatant is removed with a sterile polypropylene pipet and transferred to sterile polypropylene tubes. Samples are maintained at −30 to −70° C. until analysis. The samples are analyzed for interferon (α) by either ELISA or bioassay and for tumor necrosis factor (α) by ELISA.
Tumor necrosis factor (α) (TNF)concentration is determined using ELISA kits available from Genzyme, Cambridge, Mass.; R&D Systems, Minneapolis, Minn.; or Pharmingen, San Diego, Calif.
(§6) The table below lists the lowest concentration found to induce interferon and the lowest concentration found to induce tumor necrosis factor for each compound. […] Unless otherwise indicated, the interferon biosynthesis was determined by ELISA.

Assay [2] relates to interferon (α). As to the kind of experiment: Cytokine induction in human cells: interferon secreted by PBMCs, ELISA. The following applies: PBMC, incubated 18 to 24 hours, interferon determined by ELISA, read-out: Lowest Effective Concentration (μM) Interferon. The class given is cell-based.
Text: as §1, §2, §3, §4, §5
Interferon (α) concentration is determined by ELISA using a Human Multi-Species kit from PBL Biomedical Laboratories, New Brunswick, N.J.
as §6
Background: In an ELISA, binding on a coated surface is turned into a signal by an enzyme label.

As for `COCCc1nc2c(N)nc3ccccc3c2n1CCCCNC(=O)C1CCCN1S(=O)(=O)c1ccc(C(C)(C)C)cc1` (stereo in doubt) [Example 185, N-{4-[4-amino-2-(2-methoxyethyl)-1H-imidazo[4,5-c]quinolin-1-yl]butyl}-1-[(4-tert-butylphenyl)sulfonyl]-L-prolinamide], the figures for the minimal effective concentration in assay [1] and in assay [2] were 3.33 µM and 1.11 µM, respectively.

Take `Cc1nc2c(N)nc3ccccc3c2n1CCCCNC(=O)c1ccccc1` [Example 4, N^1-[4-(4-Amino-2-methyl-1H-imidazo[4,5-c]quinolin-1-yl)butyl]benzamide]: the minimal effective concentration turned out to be 0.37 µM in assay [1] and 0.04 µM in assay [2].

As to `CCc1nc2c(N)nc3ccccc3c2n1CCCCNC(=O)c1ccccc1` [Example 5, N^1-[4-(4-Amino-2-ethyl-1H-imidazo[4,5-c]quinolin-1-yl)butyl]benzamide], the minimal effective concentration in assay [1] was 0.37 µM; in assay [2], 0.04 µM.

For the compound `CCCCc1nc2c(N)nc3ccccc3c2n1CCCCNC(=O)c1ccccc1` [Example 6, N^1-[4-(4-Amino-2-butyl-1H-imidazo[4,5-c]quinolin-1-yl)butyl]benzamide], the minimal effective concentration in assay [1] turned out to be 1.11 µM; in assay [2] it was 0.12 µM.

`Nc1nc2ccccc2c2c1ncn2CCCCCNC(=O)c1ccccc1` [Example 10, N^1-[5-(4-Amino-1H-imidazo[4,5-c]quinolin-1-yl)pentyl]benzamide Hydrochloride]: the minimal effective concentration was more than 30 µM in assay [1] and 3.33 µM in assay [2].

On to `Nc1nc2ccccc2c2c1ncn2CCCNC(=O)c1ccccc1` [Example 11, N^1-[3-(4-Amino-1H-imidazo[4,5-c]quinolin-1-yl)propyl]benzamide Hydrochloride], for which the minimal effective concentration in assay [1] was more than 30 µM; in assay [2] it was 1.11 µM.

As to `CCOCc1nc2c(N)nc3ccccc3c2n1CCNC(=O)CCCCC1SCC2NC(=O)NC21` (centres unmarked) [Example 29, N^1-[2-(4-Amino-2-(ethoxymethyl)-1H-imidazo[4,5-c]quinolin-1-yl)ethyl]-5-(2-oxoperhydrothieno[3,4-d]imidazol-4-yl)pentanamide Ditrifluoroacetate], the minimal effective concentration in assay [1] was more than 30 µM; in assay [2] it was 0.12 µM.

For `Nc1nc2ccccc2c2c1ncn2CCCCNC(=O)c1cccc2ccccc12` [Example 38, N^1-[4-(4-Amino-1H-imidazo[4,5-c]quinolin-1-yl)butyl]-1-naphthamide], the values for the minimal effective concentration in assay [1] and in assay [2] were 3.33 µM and 0.12 µM, respectively.

Take `Nc1nc2ccccc2c2c1ncn2CCCCNC(=O)c1cnc2ccccc2c1` [Example 40, N^3-[4-(4-Amino-1H-imidazo[4,5-c]quinolin-1-yl)butyl]-3-quinolinecarboxamide]: the results for the minimal effective concentration in assay [1] and in assay [2] were 30 µM and 0.37 µM, respectively.

As for `Nc1nc2ccccc2c2c1ncn2CCCCNC(=O)c1ccco1` [Example 85], the minimal effective concentration in assay [1] stood at 10 µM; in assay [2] it was 1.11 µM.

As for `Nc1nc2ccccc2c2c1ncn2CCCCNC(=O)c1cccs1` [Example 86], the minimal effective concentration stood at 10 µM in assay [1] and 1.11 µM in assay [2].

Take `Nc1nc2ccccc2c2c1ncn2CCCCNC(=O)c1ccc([N+](=O)[O-])cc1` [Example 87]: the minimal effective concentration in assay [1] was determined as 30 µM; in assay [2] it was 3.33 µM.

As to `CC(=O)NCCCCn1cnc2c(N)nc3ccccc3c21` [Example 88], the minimal effective concentration in assay [1] is more than 30 µM; in assay [2], 10 µM.

As to `Nc1nc2ccccc2c2c1ncn2CCCCNC(=O)c1cccc(Br)c1` [Example 89], the minimal effective concentration in assay [1] is 10 µM; in assay [2], 1.11 µM.

For the compound `Nc1nc2ccccc2c2c1ncn2CCCCNC(=O)C12CC3CC(CC(C3)C1)C2` [Example 90], the figures for the minimal effective concentration in assay [1] and in assay [2] were 10 µM and 3.33 µM, respectively.

In the case of `Nc1nc2ccccc2c2c1ncn2CCCCNC(=O)C1(c2ccc(Cl)cc2)CCCC1` [Example 91], the minimal effective concentration in assay [1] is more than 30 µM; in assay [2], 3.33 µM.

In the case of `C=CCCCCCCCCC(=O)NCCCCn1cnc2c(N)nc3ccccc3c21` [Example 92], the results for the minimal effective concentration in assay [1] and in assay [2] were more than 30 µM and 3.33 µM, respectively.

Take `COc1cc(C(=O)NCCCCn2cnc3c(N)nc4ccccc4c32)cc(OC)c1OC` [Example 93]: the figures for the minimal effective concentration in assay [1] and in assay [2] were 30 µM and 1.11 µM, respectively.

For the compound `COC(=O)CCCCC(=O)NCCCCn1cnc2c(N)nc3ccccc3c21` [Example 95], the minimal effective concentration in assay [1] is 30 µM; in assay [2], 3.33 µM.

For the compound `Nc1nc2ccccc2c2c1ncn2CCCCNC(=O)c1ccc([N+](=O)[O-])o1` [Example 96], the minimal effective concentration in assay [1] is 10 µM; in assay [2] it was 0.37 µM.

For `Nc1nc2ccccc2c2c1ncn2CCCCNC(=O)c1cccnc1Cl` [Example 97], the minimal effective concentration was determined as 3.33 µM in assay [1] and 0.12 µM in assay [2].

On to `COc1ccc(CC(=O)NCCCCn2cnc3c(N)nc4ccccc4c32)cc1` [Example 98], for which the minimal effective concentration stood at 10 µM in assay [1] and 1.11 µM in assay [2].

Consider `Nc1nc2ccccc2c2c1ncn2CCCCNC(=O)CC1CCCC1` [Example 99], for which the minimal effective concentration was determined as 3.33 µM in assay [1] and 0.37 µM in assay [2].

Take `COC(=O)c1ccc(C(=O)NCCCCn2cnc3c(N)nc4ccccc4c32)cc1` [Example 100]: the values for the minimal effective concentration in assay [1] and in assay [2] were 3.33 µM and 10 µM, respectively.

Turning to `COC(=O)CCCCCCCCC(=O)NCCCCn1cnc2c(N)nc3ccccc3c21` [Example 101], the minimal effective concentration in assay [1] was more than 30 µM; in assay [2], 3.33 µM.

Regarding `Nc1nc2ccccc2c2c1ncn2CCCCNC(=O)c1ccc(OC(F)(F)F)cc1` [Example 102], the minimal effective concentration in assay [1] is more than 30 µM; in assay [2], 3.33 µM.

With `Nc1nc2ccccc2c2c1ncn2CCCCNC(=O)c1ccc(CN2CCOCC2)cc1` [Example 103], the results for the minimal effective concentration in assay [1] and in assay [2] were 10 µM and 0.37 µM, respectively.

Take `Nc1nc2ccccc2c2c1ncn2CCCCNC(=O)c1ccc(CN2CCN(C(c3ccccc3)c3ccccc3)CC2)cc1` [Example 104]: the minimal effective concentration in assay [1] and in assay [2] was more than 30 µM each time.

On to `Nc1nc2ccccc2c2c1ncn2CCCCNC(=O)c1ccc(CNCc2ccncc2)cc1` [Example 105], for which the minimal effective concentration in assay [1] was found to be 10 µM; in assay [2] it was 0.12 µM.

Turning to `COc1ccccc1CCNCc1ccc(C(=O)NCCCCn2cnc3c(N)nc4ccccc4c32)cc1` [Example 106], the minimal effective concentration in assay [1] was more than 30 µM; in assay [2] it was 3.33 µM.

As to `CN(CCc1ccccn1)Cc1ccc(C(=O)NCCCCn2cnc3c(N)nc4ccccc4c32)cc1` [Example 107], the values for the minimal effective concentration in assay [1] and in assay [2] were 10 µM and 0.12 µM, respectively.

Take `Nc1nc2ccccc2c2c1ncn2CCCCNC(=O)Cc1cccs1` [Example 108, N^1-(4-(4-Amino-1H-imidazo[4,5-c]quinolin-1-yl)butyl)-2-(2-thienyl)acetamide]: the results for the minimal effective concentration in assay [1] and in assay [2] were 10 µM and 0.12 µM, respectively.

Turning to `Nc1nc2ccccc2c2c1ncn2CCCCNC(=O)CC(c1ccccc1)c1ccccc1` [Example 109], the minimal effective concentration in assay [1] and in assay [2] was more than 30 µM each time.

Consider `Nc1nc2ccccc2c2c1ncn2CCCCNC(=O)CC1C=CCC1` (centres unmarked) [Example 110], for which the figures for the minimal effective concentration in assay [1] and in assay [2] were 3.33 µM and 1.11 µM, respectively.

Consider `Nc1nc2ccccc2c2c1ncn2CCCCNC(=O)c1cc(Cl)cc(Cl)c1` [Example 111], for which the values for the minimal effective concentration in assay [1] and in assay [2] were more than 30 µM and 1.11 µM, respectively.

Take `N#CCC(=O)NCCCCn1cnc2c(N)nc3ccccc3c21` [Example 112]: the figures for the minimal effective concentration in assay [1] and in assay [2] were more than 30 µM and 10 µM, respectively.

As for `COC(=O)CCC(=O)NCCCCn1cnc2c(N)nc3ccccc3c21` [Example 113], the results for the minimal effective concentration in assay [1] and in assay [2] were more than 30 µM and 3.33 µM, respectively.
